Reference: patent US20110065138A1, “Quantitative Method For Detecting Yessotoxins In Fishery Products On Based On The Activation That The Toxin Produces In Cellular Phosphodiesterases And Therapeutic Use Of This Activation” (UNIVERSIDADE DE SANTIAGO DE COMPOSTELA, priority 2003, published 2011)

Experiments:
rat mastocytes = experiment: Inhibition of histamine release induced by immunological stimulus (ovalbumin) in rat mastocytes; assay type: cell-based
Description: Immunological activation of mastocytes and basophils requires a temporary increase of cAMP. This increase is indispensable for cell response activation (Botana and MacGlashan, 1994). PDE activation cancels this initial cAMP peak, and therefore prevents cell activation. In the presence of YTX, i.e. with activated PDEs, cell response will be inhibited. The inhibiting effect can be used in antiallergic or antiasthmatic therapeutic strategies, these being two pathologies in which mastocytes play a predominant role (Metcalfe, Baram, D. et al., 1997). The present use describes the quantification of the inhibition that YTX produces on cell activation induced by immunological stimulus in mastocytes in rats. Cell response inhibition can be determined according to different protocols described in the literature. One in which the response is quantified according to the histamine released by mastocytes in rats into the extracellular medium is set forth below (Alfonso, Cabado, A. G. et al., 2000; Estévez, Vieytes, et al., 1994).
a.—The rats are sensitized 15 days before conducting the experiment. […]
g.—The histamine is finally quantified, converting it into a fluorescent molecule by reaction in a base medium with o-phthalic dialdehyde. The reaction is stopped with hydrochloric acid and the fluorescence is read at 360 nm excitation and 460 nm emission.

[1] = tested on: cellular phosphodiesterases (PDEs); experiment: Activation of cellular phosphodiesterases (destruction of cAMP); assay type: biochemical
Description: A usual way of detecting cellular PDE activity is to observe their ability to destroy cAMP. There is a fluorescent derivative of cAMP, anthraniloyl-cAMP (excitation wavelength: 350 nm, emission wavelength: 445 nm), the fluorescence of which decreases as it degrades. The decrease of fluorescence over time can be expressed as the destruction rate of cAMP. In the presence of PDEs, the destruction rate increases, and if these enzymes are activated, the degradation rate will be even greater. In the present invention the degradation rate of the fluorescent indicator anthraniloyl-cAMP in the presence of PDEs is determined and its variation when samples with YTX are added is studied. Fluorescence is read with a fluorimeter that is prepared for reading microtitration plates. The destruction rate is determined in the presence of several known concentrations of YTX. […]
The method is carried out in a microtitration plate in a temperature range between 22 and 37° C. and the fluorescence is measured at an excitation wavelength of 360 nanometers and an emission wavelength of 460 nanometers.
a.—Test buffer (10 mM Tris HCl+1 mM CaCl2 pH 7.4) is added in all the wells for a final incubation volume of 100 μL, and the corresponding amount, depending on the type of well, of anthraniloyl-cAMP. A first reading is performed for 2 minutes. […]

HEP-G2 cells = experiment: HEP-G2 cell growth inhibition by crystal violet staining; assay type: cell-based; conditions: Homo sapiens, HepG2, 10 μM of YTX, 48 hours incubation, absorbance 595 nm
Description: Neoplasic cell growth inhibition is an indicator of antitumor activity widely used to describe antineoplasic properties of new drugs. […] The ability of YTX as a cytotoxic drug for hepatic carcinoma tumor cells is quantified in the present use. Cell growth inhibition can be determined according to different protocols described in the literature. One of these protocols is set forth below in which the response is quantified in the HEP-G2 cell line by means of crystal violet staining and subsequent acetylation.
a.—HEP-G2 cells are seeded on a microtitration plate with a density of 10000 cells per well. They are incubated for 24 hours with growth medium at 37° C. and 5% CO2.
b.—Different concentrations of YTX are added and it is incubated for 48 hours at 37° C. and 5% CO2.
c.—10 μL of 11% glutaraldehyde are added to fix the cells and it is incubated for 15 minutes. It is washed 3-4 times with distilled water.
d.—A 0.1% solution of crystal violet is added and the plate is shaken for 15 minutes.
e.—The dye is removed by washing with distilled water and it is subsequently dried.
f.—10% acetic acid is added and shaking is maintained for 15 minutes.
g.—Absorbance is read in a spectrophotometer at 595 nanometers.
h.—It was found with this protocol that 10 μM of YTX induce cell growth inhibition of about 82+/−1%.

cellular phosphatases = conditions: in contrast to okadaic acid (Draisci, Lucentini et al., 2000); cited from earlier work

In the case of C=CCC(=C)/C=C/[C@@](C)(O)[C@H]1O[C@@H]2C[C@@H]3O[C@@H]4C[C@@H]5O[C@@H]6C[C@@H]7O[C@@H]8C[C@@H]9O[C@@H]%10C[C@@H]%11O[C@](C)(CCOS(=O)(=O)O)[C@@H](OS(=O)(=O)O)C[C@H]%11O[C@H]%10C[C@H]9O[C@H]8CC[C@@]7(C)O[C@@]6(C)CC[C@H](C)[C@H]5O[C@H]4C[C@@]3(C)O[C@H]2CC1=C [YTX, yessotoxin], the “effect on histamine release activated by immunological stimulus” value (rat mastocytes) is reported as “histamine release inhibitor”, the “effect on PDE activity” value [1] is reported as “PDE activator” and the inhibition at 10 µM (HEP-G2 cells) is reported as ~82%. The “effect on cellular phosphatases” value (cellular phosphatases) was “does not inhibit”.
